# Test system: M2 macrophages
# Format: cell-based, human
# Settings: inhibitor 30 min, TB511 1 µM 1 h, 24 h fresh medium, n=3
row,SMILES,Effect of inhibitor on TB511-induced apoptosis (CCK8)
1,"CN(C)CCCN1c2ccccc2Sc2ccc(Cl)cc21 [CPZ, chlorpromazine]",decreasing TB511-induced apoptosis
2,"C=C1[C@@H](C)[C@H]2[C@H](Cc3ccccc3)NC(=O)[C@]23[C@H](OC(C)=O)/C=C/[C@@](C)(O)C(=O)[C@@H](C)C/C=C/[C@H]3[C@@H]1O [CyD, cytochalasin D]",decreasing TB511-induced apoptosis

# Source: article PMC11973759 (Journal for Immunotherapy of Cancer, 2025)
